The record followed here is ChEMBL document CHEMBL3792292, “Development of a potent and selective FLT3 kinase inhibitor by systematic expansion of a non-selective fragment-screening hit” (Bioorg Med Chem Lett, 2016).

Structures are written as SMILES.

The inhibition is the relative decrease from the control value, in per cent.

The target in assay [1] is Tyrosine-protein kinase SYK (Homo sapiens) (UniProt P43405). Briefly: Inhibition of full length human N-terminal GST-tagged SYK (1 to 635 residues) expressed in baculovirus expression system using fluorescence labelled Blk/Lyntide as substrate at 50 times IC50 by electrophoretic mobility shift assay relative to control. Background: Mobility shift assays separate free from complexed probe on a gel.

In assay [2] the target is T1, Ephrin type-B receptor 4 (Homo sapiens) (UniProt P54760).
T1 sequence (whole entry): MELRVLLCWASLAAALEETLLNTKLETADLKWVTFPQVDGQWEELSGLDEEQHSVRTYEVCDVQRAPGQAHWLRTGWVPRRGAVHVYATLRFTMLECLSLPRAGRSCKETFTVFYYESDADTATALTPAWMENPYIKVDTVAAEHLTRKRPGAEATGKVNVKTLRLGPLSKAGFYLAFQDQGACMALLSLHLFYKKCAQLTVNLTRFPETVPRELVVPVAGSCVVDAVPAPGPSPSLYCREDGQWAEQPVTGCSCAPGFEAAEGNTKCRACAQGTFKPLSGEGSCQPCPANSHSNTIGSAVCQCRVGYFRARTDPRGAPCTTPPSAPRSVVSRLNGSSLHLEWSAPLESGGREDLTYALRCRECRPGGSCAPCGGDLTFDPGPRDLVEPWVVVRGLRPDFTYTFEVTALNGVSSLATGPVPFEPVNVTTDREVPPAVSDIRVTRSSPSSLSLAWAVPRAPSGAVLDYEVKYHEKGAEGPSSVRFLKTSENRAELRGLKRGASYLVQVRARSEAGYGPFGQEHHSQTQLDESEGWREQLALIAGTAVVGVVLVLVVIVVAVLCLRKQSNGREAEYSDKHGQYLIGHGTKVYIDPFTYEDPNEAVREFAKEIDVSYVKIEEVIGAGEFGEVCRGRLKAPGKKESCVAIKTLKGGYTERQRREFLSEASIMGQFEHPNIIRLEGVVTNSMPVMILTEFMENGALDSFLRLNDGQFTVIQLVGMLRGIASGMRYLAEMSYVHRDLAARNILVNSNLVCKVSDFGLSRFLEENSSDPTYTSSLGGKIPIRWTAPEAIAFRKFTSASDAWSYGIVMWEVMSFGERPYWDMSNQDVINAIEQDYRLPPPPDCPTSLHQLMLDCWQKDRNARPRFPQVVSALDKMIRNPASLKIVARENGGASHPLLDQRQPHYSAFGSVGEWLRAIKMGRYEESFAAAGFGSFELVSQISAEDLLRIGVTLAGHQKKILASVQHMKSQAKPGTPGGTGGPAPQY
Briefly: Inhibition of human N-terminal GST-tagged EPHB4 cytoplasmic domain (577 to 987 residues) expressed in baculovirus expression system using fluorescence labelled Blk/Lyntide as substrate at 50 times IC50 by electrophoretic mobility shift assay relative to control.

Assay [3] concerns the target Ephrin type-A receptor 2 (Homo sapiens) (UniProt P29317). Briefly: Inhibition of human N-terminal GST-tagged EPHA2 cytoplasmic domain (572 to 976 residues) expressed in baculovirus expression system using fluorescence labelled Blk/Lyntide as substrate at 50 times IC50 by electrophoretic mobility shift assay relative to control.
Assay [4] has as its target T2, Serine/threonine-protein kinase 4 (Homo sapiens) (UniProt Q13043).
T2 sequence (whole entry): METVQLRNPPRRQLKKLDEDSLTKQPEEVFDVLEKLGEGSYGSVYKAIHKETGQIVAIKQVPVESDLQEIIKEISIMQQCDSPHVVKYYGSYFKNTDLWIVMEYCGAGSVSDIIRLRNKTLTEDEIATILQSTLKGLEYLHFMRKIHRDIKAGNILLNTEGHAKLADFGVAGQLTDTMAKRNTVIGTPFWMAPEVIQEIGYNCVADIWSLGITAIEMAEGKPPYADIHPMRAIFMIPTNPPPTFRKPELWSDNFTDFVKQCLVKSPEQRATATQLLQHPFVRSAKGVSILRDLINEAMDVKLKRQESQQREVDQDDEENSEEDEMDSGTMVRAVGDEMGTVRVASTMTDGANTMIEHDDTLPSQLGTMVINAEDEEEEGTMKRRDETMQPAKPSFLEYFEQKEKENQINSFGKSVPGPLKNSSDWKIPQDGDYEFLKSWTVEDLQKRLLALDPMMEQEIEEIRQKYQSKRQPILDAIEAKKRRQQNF
Briefly: Inhibition of full length human N-terminal GST-tagged MST1 (1 to 487 residues) expressed in baculovirus expression system using fluorescence labelled IRS1 as substrate at 50 times IC50 by electrophoretic mobility shift assay relative to control.

Assay [5] deals with Rho-associated protein kinase 1 (Homo sapiens) (UniProt Q13464). Put plainly: Inhibition of human N-terminal GST-tagged ROCK1 catalytic domain (1 to 477 residues) expressed in baculovirus expression system using fluorescence labelled LIMKtide substrate at 50 times IC50 by electrophoretic mobility shift assay relative to control.
Sequence of Rho-associated protein kinase 1 (Homo sapiens) (Q13464 2-1354 limits assumed): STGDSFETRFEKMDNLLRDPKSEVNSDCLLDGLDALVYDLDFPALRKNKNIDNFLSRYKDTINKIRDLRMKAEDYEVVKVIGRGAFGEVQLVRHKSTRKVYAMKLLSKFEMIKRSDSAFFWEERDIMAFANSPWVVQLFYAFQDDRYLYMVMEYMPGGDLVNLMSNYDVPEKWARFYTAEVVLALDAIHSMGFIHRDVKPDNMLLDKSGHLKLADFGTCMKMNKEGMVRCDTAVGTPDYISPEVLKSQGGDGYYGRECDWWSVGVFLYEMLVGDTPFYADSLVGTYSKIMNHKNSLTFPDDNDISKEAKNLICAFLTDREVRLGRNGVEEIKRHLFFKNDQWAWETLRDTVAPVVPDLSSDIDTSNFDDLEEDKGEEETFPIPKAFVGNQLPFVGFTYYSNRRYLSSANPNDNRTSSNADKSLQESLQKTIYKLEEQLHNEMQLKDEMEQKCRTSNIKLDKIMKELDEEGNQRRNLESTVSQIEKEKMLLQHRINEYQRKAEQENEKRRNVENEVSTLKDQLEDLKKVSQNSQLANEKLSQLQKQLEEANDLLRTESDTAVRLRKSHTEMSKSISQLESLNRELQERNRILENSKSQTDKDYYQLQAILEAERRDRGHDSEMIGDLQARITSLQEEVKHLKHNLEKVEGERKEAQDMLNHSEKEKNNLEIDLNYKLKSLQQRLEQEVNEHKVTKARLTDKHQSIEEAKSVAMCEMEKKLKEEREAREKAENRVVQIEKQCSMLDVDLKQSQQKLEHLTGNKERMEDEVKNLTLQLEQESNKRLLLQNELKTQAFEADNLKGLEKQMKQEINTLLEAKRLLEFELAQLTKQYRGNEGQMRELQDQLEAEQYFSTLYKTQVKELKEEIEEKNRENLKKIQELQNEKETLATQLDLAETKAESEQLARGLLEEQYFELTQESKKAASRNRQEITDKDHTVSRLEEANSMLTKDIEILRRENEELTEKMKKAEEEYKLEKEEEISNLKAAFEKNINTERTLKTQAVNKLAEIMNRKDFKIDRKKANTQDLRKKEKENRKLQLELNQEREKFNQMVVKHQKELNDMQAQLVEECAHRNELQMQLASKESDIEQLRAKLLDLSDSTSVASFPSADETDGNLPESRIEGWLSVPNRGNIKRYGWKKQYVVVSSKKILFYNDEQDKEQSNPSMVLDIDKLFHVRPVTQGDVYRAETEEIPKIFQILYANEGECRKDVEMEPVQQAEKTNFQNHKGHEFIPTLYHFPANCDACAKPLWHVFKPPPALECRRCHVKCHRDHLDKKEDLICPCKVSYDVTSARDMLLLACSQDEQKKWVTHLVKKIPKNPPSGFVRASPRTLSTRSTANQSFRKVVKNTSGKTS
Assay [6] has as its target T3, Inhibitor of nuclear factor kappa-B kinase subunit beta (Homo sapiens) (UniProt O14920).
T3 sequence (whole entry): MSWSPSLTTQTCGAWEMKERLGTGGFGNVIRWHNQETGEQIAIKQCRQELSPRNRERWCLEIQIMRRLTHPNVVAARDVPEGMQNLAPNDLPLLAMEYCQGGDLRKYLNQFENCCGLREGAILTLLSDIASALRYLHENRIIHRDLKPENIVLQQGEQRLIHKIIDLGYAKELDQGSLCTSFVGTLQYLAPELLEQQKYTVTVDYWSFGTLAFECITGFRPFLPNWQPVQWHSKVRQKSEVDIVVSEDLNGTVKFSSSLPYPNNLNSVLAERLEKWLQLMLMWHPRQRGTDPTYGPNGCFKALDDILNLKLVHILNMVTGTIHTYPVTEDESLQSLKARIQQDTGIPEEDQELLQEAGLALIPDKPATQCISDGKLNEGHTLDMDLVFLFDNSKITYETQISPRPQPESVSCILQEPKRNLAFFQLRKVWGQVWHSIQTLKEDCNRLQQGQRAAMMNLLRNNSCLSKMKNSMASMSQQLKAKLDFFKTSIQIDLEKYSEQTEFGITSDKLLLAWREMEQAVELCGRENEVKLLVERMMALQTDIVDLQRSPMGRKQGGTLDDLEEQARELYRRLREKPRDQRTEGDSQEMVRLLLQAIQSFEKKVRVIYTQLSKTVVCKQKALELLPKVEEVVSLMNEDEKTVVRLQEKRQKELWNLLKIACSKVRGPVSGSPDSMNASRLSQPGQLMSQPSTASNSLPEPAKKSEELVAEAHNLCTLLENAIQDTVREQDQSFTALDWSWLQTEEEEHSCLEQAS
Put plainly: Inhibition of human N-terminal His-tagged IKKbeta (1 to 662 residues) expressed in baculovirus expression system using fluorescence labelled modified IKBalpha derived peptide substrate at 50 times IC50 by electrophoretic mobility shift assay relative to control.

The target in assay [7] is Casein kinase I isoform epsilon (Homo sapiens) (UniProt P49674). Put plainly: Inhibition of human N-terminal GST-tagged CK1epsilon catalytic domain (1 to 348 residues) expressed in baculovirus expression system using fluorescence labelled CKtide as substrate at 50 times IC50 by electrophoretic mobility shift assay relative to control.
Sequence of Casein kinase I isoform epsilon (Homo sapiens) (P49674 whole entry, looked up, the tested form may be a part, canonical isoform): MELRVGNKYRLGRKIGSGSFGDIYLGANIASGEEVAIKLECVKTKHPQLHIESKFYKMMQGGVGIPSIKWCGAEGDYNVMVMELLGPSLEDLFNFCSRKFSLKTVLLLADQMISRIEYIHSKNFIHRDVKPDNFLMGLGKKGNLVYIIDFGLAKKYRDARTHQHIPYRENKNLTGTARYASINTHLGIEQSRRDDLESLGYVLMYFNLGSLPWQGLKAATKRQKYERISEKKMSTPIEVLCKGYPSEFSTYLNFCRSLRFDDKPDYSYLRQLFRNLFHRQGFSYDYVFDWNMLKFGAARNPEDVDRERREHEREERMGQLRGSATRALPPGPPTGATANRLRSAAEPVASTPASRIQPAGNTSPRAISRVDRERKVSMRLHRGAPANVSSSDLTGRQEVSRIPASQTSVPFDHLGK

Sequence of Ephrin type-A receptor 2 (Homo sapiens) (P29317 whole entry, the tested form may be a part): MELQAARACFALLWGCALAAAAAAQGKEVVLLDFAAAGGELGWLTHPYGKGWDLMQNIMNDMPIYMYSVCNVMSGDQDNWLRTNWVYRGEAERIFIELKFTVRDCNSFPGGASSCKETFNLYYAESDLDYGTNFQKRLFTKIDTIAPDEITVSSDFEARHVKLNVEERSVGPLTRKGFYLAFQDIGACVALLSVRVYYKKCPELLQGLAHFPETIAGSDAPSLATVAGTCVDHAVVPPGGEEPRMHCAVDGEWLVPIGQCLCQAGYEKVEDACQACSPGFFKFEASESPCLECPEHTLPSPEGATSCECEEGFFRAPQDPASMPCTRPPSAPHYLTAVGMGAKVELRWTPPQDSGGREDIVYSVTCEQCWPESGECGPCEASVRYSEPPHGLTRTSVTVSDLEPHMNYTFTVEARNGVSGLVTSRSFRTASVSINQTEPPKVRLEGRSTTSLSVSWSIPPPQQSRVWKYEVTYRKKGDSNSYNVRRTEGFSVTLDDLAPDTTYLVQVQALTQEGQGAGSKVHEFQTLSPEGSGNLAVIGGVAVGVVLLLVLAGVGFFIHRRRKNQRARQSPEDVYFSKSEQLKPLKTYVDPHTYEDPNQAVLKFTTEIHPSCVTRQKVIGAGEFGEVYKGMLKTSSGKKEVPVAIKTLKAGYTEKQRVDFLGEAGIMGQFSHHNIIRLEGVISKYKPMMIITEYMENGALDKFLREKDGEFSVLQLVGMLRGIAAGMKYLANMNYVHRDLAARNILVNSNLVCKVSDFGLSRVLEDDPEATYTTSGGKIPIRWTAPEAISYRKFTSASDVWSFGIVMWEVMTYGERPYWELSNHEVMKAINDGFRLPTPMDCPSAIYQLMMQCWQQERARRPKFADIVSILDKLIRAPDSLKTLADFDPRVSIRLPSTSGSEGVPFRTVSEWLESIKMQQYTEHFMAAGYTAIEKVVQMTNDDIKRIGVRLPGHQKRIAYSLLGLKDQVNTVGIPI

In the case of `O=C(Nc1ccccc1)c1n[nH]c2ccccc12`, the inhibition in assay [1] stood at 73.5%; in assay [2] it was 0.4%; in assay [3] it was 0.6%; in assay [4], 31.9%; in assay [5] it was 3.3%; in assay [6], 0.7%. In addition, the inhibition in assay [7] is 51.3%.
Take `O=C(Nc1ccc(C(=O)N2CCN(c3ccccc3)CC2)cc1)c1n[nH]c2ccccc12`: the inhibition was 40.2% in assay [1]; -1.2% in assay [2]; -1.6% in assay [3]; 16.8% in assay [4]; 6.9% in assay [5]; 1.3% in assay [6]. Besides, the inhibition in assay [7] was found to be 21.3%.
As for `O=C(Nc1ccc(CN2CCN(c3ccccc3)CC2)cc1)c1n[nH]c2ccccc12`, the inhibition was 29.7% in assay [1]; -0.4% in assay [2]; 0.9% in assay [3]; 32.6% in assay [4]; 1.9% in assay [5]; 0.6% in assay [6]. In addition, the inhibition in assay [7] came out at 19.3%.
